{"source": "patent US20230282357A1", "about": "“ACUTE LIVER PATIENT MANAGEMENT” (MERIDIAN BIOSCIENCE ISRAEL LTD., priority 2020, published 2023)", "key": {"CYP1A2 metabolism [1]": {"target": "T1, CYP1A2 metabolism (Homo sapiens, UniProt P05177)", "T1 sequence (P05177 1-516)": "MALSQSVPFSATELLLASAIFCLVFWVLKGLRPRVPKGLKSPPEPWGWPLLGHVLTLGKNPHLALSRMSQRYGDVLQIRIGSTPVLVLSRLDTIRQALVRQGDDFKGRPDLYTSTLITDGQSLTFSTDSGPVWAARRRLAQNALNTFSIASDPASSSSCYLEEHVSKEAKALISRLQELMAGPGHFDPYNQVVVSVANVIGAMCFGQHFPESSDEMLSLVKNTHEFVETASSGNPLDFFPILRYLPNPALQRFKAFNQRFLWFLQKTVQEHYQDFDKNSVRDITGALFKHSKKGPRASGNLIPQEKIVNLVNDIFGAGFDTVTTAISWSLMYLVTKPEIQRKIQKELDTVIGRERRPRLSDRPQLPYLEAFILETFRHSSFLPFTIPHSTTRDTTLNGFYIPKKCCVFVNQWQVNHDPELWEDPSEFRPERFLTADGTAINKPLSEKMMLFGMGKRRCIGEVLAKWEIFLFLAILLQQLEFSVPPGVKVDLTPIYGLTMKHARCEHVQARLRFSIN", "experiment": "13C-methacetin breath test (MBT), PDR-peak in ALF/ALI patients", "procedure": "(§1) A ^13C-methacetin breath test (MBT), which assays CYP1A2 metabolism, for assessing functional liver capacity and its changes over time, was utilized to predict transplant-free survival.\n(§2) Method: Eligible patients with ALF or non-acetaminophen (APAP) ALI underwent ^13C-MBT at day 1, 2, 3, 5 and 7 after enrollment, unless discharged, transplanted or died. 75 mg of ^13C-methacetin was administered orally or via a nasogastric tube, and exhaled ^13CO2 measured for up to 60 minutes using the BreathID® (Exalenz Bioscience Ltd., Modi’in, Israel). The percent dose recovery (PDR) peak was determined on day 1 or 2 and correlated with 21-day outcome."}, "[2]": {"settings": "human, in vivo"}, "CYP1A2 metabolism [3]": {"target": "T1, CYP1A2 metabolism", "settings": "in vivo", "procedure": "as §1, §2"}}, "note": "Read-outs that look alike come from different tables or passages of the source.", "data": [{"smiles": "CC(=O)Nc1ccc(O[13CH3])cc1", "note": "[^13C-methacetin]", "values": [{"measurement": "AUROC of PDR-peak as predictor of 21-day transplant free survival", "setting": "CYP1A2 metabolism [1]; 42 ALF patients, Day 1 or 2 PDR-peak values", "result": "0.82 (95% CI 0.68-0.96)"}, {"measurement": "AUROC of PDR-peak as predictor of 21-day transplant free survival", "setting": "CYP1A2 metabolism [1]; 42 ALF patients, combined with the ALFSG prognostic index", "result": 0.93}, {"measurement": "AUROC of PDR-peak as predictor of 21-day transplant free survival", "setting": "CYP1A2 metabolism [1]; 42 ALF patients, with inclusion of ALF etiology", "result": "0.89 (95% CI 0.79-0.98)"}, {"measurement": "AUROC of PDR-peak as predictor of 21-day transplant free survival", "setting": "CYP1A2 metabolism [1]; 56 ALF and ALI patients, day 1 or 2 measures", "result": "0.88 (95% CI 0.79-0.97)"}, {"measurement": "AUROC of PDR-peak as predictor of 21-day transplant free survival", "setting": "CYP1A2 metabolism [1]; 56 ALF and ALI patients, with inclusion of the etiology of ALI/ALF", "result": "0.92 (95% CI 0.85-0.99)"}, {"measurement": "serial PDR peak results", "setting": "CYP1A2 metabolism [1]; ALF DILI patient who survived without transplant, FIG. 6", "result": "improved from day 2 through day 7"}, {"measurement": "day 1 or 2 mean PDR-peak", "setting": "CYP1A2 metabolism [1]; transplant-free survivors (TFS), 75 mg orally or via nasogastric tube, exhaled 13CO2 up to 60 minutes", "result": 9.2, "unit": "%/h"}, {"measurement": "de-novo or worsening serum cysteine-APAP protein adduct levels on serial testing", "setting": "[2]", "result": "None of the first 20 patients"}, {"measurement": "serious adverse events attributable to test device or substrate", "setting": "[2]", "result": "no serious adverse events"}, {"measurement": "mean serial PDR-peaks, TFS vs non-TFS", "setting": "CYP1A2 metabolism [3]", "result": "consistently higher"}, {"measurement": "serial PDR peak results", "setting": "CYP1A2 metabolism [3]", "result": "very low PDR-peak during the entire period"}]}]}
